Assay results published in patent US12714706B2, “Methods of treating small cell lung cancer with lurbinectedin formulations” (PHARMA MAR, S.A., priority 2019, dated 2026).
Read-outs that look alike come from different tables or passages of the source.

[1] = Sodium acetate pH 3, 25°C/60% RH
[2] = Sodium acetate pH 3, 14 d 25°C/60% RH
[3] = Sodium acetate pH 4, 25°C/60% RH
[4] = Sodium acetate pH 4, 14 d 25°C/60% RH
[5] = Sodium acetate pH 5, 25°C/60% RH
[6] = Sodium acetate pH 5, 14 d 25°C/60% RH
[7] = Sodium citrate pH 3, 25°C/60% RH
[8] = Sodium citrate pH 3, 14 d 25°C/60% RH
[9] = Sodium citrate pH 4, 25°C/60% RH
[10] = Sodium citrate pH 4, 14 d 25°C/60% RH
[11] = Sodium citrate pH 5, 25°C/60% RH
[12] = Sodium citrate pH 5, 14 d 25°C/60% RH
[13] = Sodium lactate pH 3, 25°C/60% RH
[14] = Sodium lactate pH 3, 14 d 25°C/60% RH
[15] = Sodium lactate pH 4, 25°C/60% RH
[16] = Sodium lactate pH 4, 14 d 25°C/60% RH
[17] = Sodium lactate pH 5, 25°C/60% RH
[18] = Sodium lactate pH 5, 14 d 25°C/60% RH
[19] = Sodium succinate pH 3, 25°C/60% RH
[20] = Sodium succinate pH 3, 14 d 25°C/60% RH
[21] = Sodium succinate pH 4, 25°C/60% RH
[22] = Sodium succinate pH 4, 14 d 25°C/60% RH
[23] = Sodium succinate pH 5, 25°C/60% RH
[24] = Sodium succinate pH 5, 14 d 25°C/60% RH

Experimental: The stability of lurbinectedin in the different buffers was further evaluated at 14 days with 25° C./60% RH conditions.

In the case of `COc1ccc2[nH]c3c(c2c1)CCN[C@]31CS[C@@H]2c3c(OC(C)=O)c(C)c4c(c3[C@H](COC1=O)N1[C@@H]2[C@H]2c3c(cc(C)c(OC)c3O)C[C@@H]([C@@H]1O)N2C)OCO4` [lurbinectedin, Lurbinectedin], the “Concentration t = 0 h” value (Sodium acetate pH 3) is reported as 950 µg/mL, the “Purity t = 0 h” value (Sodium acetate pH 3) is reported as 99.2% and the “Concentration t = 14 d” value [1] is reported as 880 µg/mL. The “Purity t = 14 d” value [1] was 98.0%, the Concentration decrease [2] was 6.8% and the Degradation [2] was 1.2%. For the same compound, the “Concentration t = 0 h” value (Sodium acetate pH 4) was 940 µg/mL, the “Purity t = 0 h” value (Sodium acetate pH 4) was 99.2% and the “Concentration t = 14 d” value [3] was 890 µg/mL. The “Purity t = 14 d” value [3] was 98.0%, the Concentration decrease [4] was 5.7% and the Degradation [4] was 1.2%. The “Concentration t = 0 h” value (Sodium acetate pH 5) was 30 µg/mL, the “Purity t = 0 h” value (Sodium acetate pH 5) was 95.4% and the “Concentration t = 14 d” value [5] was 30 µg/mL. For the same compound, the “Purity t = 14 d” value [5] was 93.7%, the Concentration decrease [6] was 8.2% and the Degradation [6] was 1.7%. The “Concentration t = 0 h” value (Sodium citrate pH 3) was 940 µg/mL, the “Purity t = 0 h” value (Sodium citrate pH 3) was 99.4% and the “Concentration t = 14 d” value [7] was 920 µg/mL. For the same compound, the “Purity t = 14 d” value [7] was 97.9%, the Concentration decrease [8] was 1.2% and the Degradation [8] was 1.6%. For the same compound, the “Concentration t = 0 h” value (Sodium citrate pH 4) was 930 µg/mL, the “Purity t = 0 h” value (Sodium citrate pH 4) was 99.4% and the “Concentration t = 14 d” value [9] was 880 µg/mL. The “Purity t = 14 d” value [9] was 96.2%, the Concentration decrease [10] was 6.0% and the Degradation [10] was 3.2%. For the same compound, the “Concentration t = 0 h” value (Sodium citrate pH 5) was 500 µg/mL, the “Purity t = 0 h” value (Sodium citrate pH 5) was 99.3% and the “Concentration t = 14 d” value [11] was 110 µg/mL. For the same compound, the “Purity t = 14 d” value [11] was 95.0%, the Concentration decrease [12] was 78.5% and the Degradation [12] was 4.3%. The “Concentration t = 0 h” value (Sodium lactate pH 3) was 940 µg/mL, the “Purity t = 0 h” value (Sodium lactate pH 3) was 99.3% and the “Concentration t = 14 d” value [13] was 930 µg/mL. For the same compound, the “Purity t = 14 d” value [13] was 98.6%, the Concentration decrease [14] was 0.9% and the Degradation [14] was 0.7%. For the same compound, the “Concentration t = 0 h” value (Sodium lactate pH 4) was 900 µg/mL, the “Purity t = 0 h” value (Sodium lactate pH 4) was 99.3% and the “Concentration t = 14 d” value [15] was 870 µg/mL. The “Purity t = 14 d” value [15] was 97.8%, the Concentration decrease [16] was 3.0% and the Degradation [16] was 1.5%. The “Concentration t = 0 h” value (Sodium lactate pH 5) was 30 µg/mL, the “Purity t = 0 h” value (Sodium lactate pH 5) was 96.5% and the “Concentration t = 14 d” value [17] was 30 µg/mL. The “Purity t = 14 d” value [17] was 93.9%, the Concentration decrease [18] was 6.9% and the Degradation [18] was 2.6%. For the same compound, the “Concentration t = 0 h” value (Sodium succinate pH 3) was 960 µg/mL, the “Purity t = 0 h” value (Sodium succinate pH 3) was 99.3% and the “Concentration t = 14 d” value [19] was 930 µg/mL. For the same compound, the “Purity t = 14 d” value [19] was 97.7%, the Concentration decrease [20] was 3.2% and the Degradation [20] was 1.5%. The “Concentration t = 0 h” value (Sodium succinate pH 4) was 970 µg/mL, the “Purity t = 0 h” value (Sodium succinate pH 4) was 99.2% and the “Concentration t = 14 d” value [21] was 890 µg/mL. The “Purity t = 14 d” value [21] was 96.8%, the Concentration decrease [22] was 7.6% and the Degradation [22] was 2.4%. The “Concentration t = 0 h” value (Sodium succinate pH 5) was 40 µg/mL, the “Purity t = 0 h” value (Sodium succinate pH 5) was 95.9% and the “Concentration t = 14 d” value [23] was 30 µg/mL. For the same compound, the “Purity t = 14 d” value [23] was 94.2%, the Concentration decrease [24] was 8.1% and the Degradation [24] was 1.8%.
